# Experimental data as given in patent US20220087960A1, “Oral Pharmaceutical Immediate Release Composition” (Aardvark Therapeutics Inc., priority 2020, published 2022).
# “Also recorded” adds a separate entry of the source.
# Experiments:
# [1] = system: Sprague Dawley rats; assay: in vivo; conditions: rat, po
# Procedure: (§1) The drugs were administered to Sprague Dawley rats with a 14-day observational period. Twenty-four Male Sprague Dawley (SD) rats and 24 female SD rats were purchased from Envigo at 8-10 weeks of age. The DA group had four dose levels (120, 360, 1000, and 2000 mg/kg, single administration by oral gavage), 3 rats per sex, 6 animals in total per dose level; and the DB group: four dose levels (120, 360, 1000, and 2000 mg/kg, single administration by oral gavage), 3 rats per sex, 6 animals in total per dose level. The estimated median lethal dose (LD50) was determined by a nonlinear regression [model: Y=100/(1+10^(LogEC50-X)), Hill slope=1.0) to calculate LD50.
# [2] = in vivo; conditions: both, Sprague Dawley, rat, po
# Procedure: as §1
# [3] = system: male Sprague Dawley rats; assay: 24 hour food intake study in rats comparing DA to DB (Example 4); assay type: in vivo, rat; conditions: gavage, DA high dose 23.1 mg/kg
# Procedure: This example provides a 24 hour study comparing DA to DB is rats (male Sprague Dawley, Charles River) over a 24 hour period. The […] of 15 rats each were vehicle controlled distilled water gavage QID, DB at a dose of 26.8 mg/kg gavage QID, DA low dose 2.9 mg/kg gavage QD, and DA high dose 23.1 mg/kg gavage QD. Food intake at 2 hr, 4 hr, 6 hr, 8 hr and 24 hr after administration was measured.
# [4] = system: diet-induced obesity (DIO) mouse model; assay: 56-day DIO mouse weight loss study comparing DA and DB (Example 3); assay type: in vivo; conditions: DIO mice
# Excerpt: The 56-day study determined the behavioral effects of bitter taste receptor agonists denatonium acetate (DA) compared to denatonium benzoate (DB) in a diet-induced obesity (DIO) mouse model. […] The study duration was a 3-5 day acclimation period+[…] study period and 2-3 day testing period after study. […] The mice were C57BL/6NTad mice at least 12 weeks in age and 15 mice per group (low dose DA, higher dose DA, high dose DB and control). […] Metabolic biomarkers (blood glucose, blood insulin, blood HbA1c) were measured at the beginning and end of the study. The DA, DB or distilled water control was administered per ostium gavage (PO) at a volume of 5 mL/kg body weight.
# [5] = system: male SD rats; assay: Single oral dose food intake study, 24-hour observational period (Example 6, first in vivo study); design: species or system rat
# Procedure: This example compares efficacy of DA versus DB in food inhibition and body weight control. As a background, according to Avau et al., Sci. Rep. […] In our first in vivo study, 45 male SD rats (purchased from Envigo at 8-10 weeks of age) were divided into three groups (15 in each group), which were administered a single oral dose of vehicle (distilled water), 26.8 mg/kg of DB, or 23.1 mg/kg of DA respectively, with a 24-hour observational period, to compare the efficacy of DB versus DA in reducing food intake. Table 4. Mean cumulative food intake during 24-h observational period
# [6] = system: male C57BL/6N DIO mice; assay: 56-day BID treatment, food consumption and body weight in DIO mice (Example 6, second in vivo study); design: species or system mouse
# Procedure: In a second in vivo study, 45 male C57BL/6N DIO mice (purchased from Envigo at 18 weeks of age, fed with high-fat diet) were divided into three groups (15 in each group), which were orally administered vehicle (distilled water), 26.8 mg/kg of DB, or 23.1 mg/kg of DA respectively, twice daily (BID), with a 56-day treatment period to compare the efficacy of DB versus DA in food intake reduction and body weight control. Briefly, once weekly, the food weight for each cage was recorded at 0 hour and then 24 hours later, permitting calculation of food consumption for that 24-hour interval. In addition, starting from Day 0, the mice were weighed three times weekly (every 2-3 days).
compound,measurement,setting,value
"CC(=O)[O-].CC[N+](CC)(CC(=O)Nc1c(C)cccc1C)Cc1ccccc1 [DA, Denatonium acetate]",Mortality rate,"[1]; both, 120 mg/kg, 14 day",0%
same,Mortality rate,"[1]; both, 360 mg/kg, 14 day",0%
same,Mortality rate,"[1]; both, 1000 mg/kg, 14 day",50%
same,Mortality rate,"[1]; both, 2000 mg/kg, 14 day",100%
same,Estimated LD50,"[1]; both, 14 day",945 mg/kg
same,No. of animals died within 24 h post dosing,"[1]; female, 120 mg/kg",0
same,No. of animals died within 24 h post dosing,"[1]; female, 360 mg/kg",0
same,No. of animals died within 24 h post dosing,"[1]; female, 1000 mg/kg",3
same,No. of animals died within 24 h post dosing,"[1]; female, 2000 mg/kg",3
same,No. of animals died within 24 h post dosing,"[1]; male, 120 mg/kg",0
same,No. of animals died within 24 h post dosing,"[1]; male, 360 mg/kg",0
same,No. of animals died within 24 h post dosing,"[1]; male, 1000 mg/kg",0
same,No. of animals died within 24 h post dosing,"[1]; male, 2000 mg/kg",3
same,LD50 at 14 day,[2],945 mg/kg
same,MTD at 14 day,[2],360 mg/kg
same,cumulative food consumption over 24 hours (FIG. 5),[3],largest impact
same,body weights at the indicated days (FIG. 1),"[4]; 56 day study, DA 23.1 mg/kg BID PO",lowest average body weights
same,body weight changes of the 56 day study (FIG. 2),[4]; DA 23.1 mg/kg BID PO compared with DB 26.8 mg/kg BID,lowest increase in body weight; also recorded: weight loss improvement of higher dose DA over higher dose DB
same,serum insulin at the end of the 56 day study (FIG. 3),"[4]; DA 23.1 mg/kg BID PO, compared with pre-treatment and vehicle",close to baseline value
same,"food intake reduction, DA compared with DB",[5]; 23.1 mg/kg DA vs 26.8 mg/kg DB,a greater food intake reduction
same,Mean cumulative food intake 0-2 h,"[5]; single oral dose (DA 23.1 mg/kg, DB 26.8 mg/kg), 0-2 h, N = 15",4.7 gram
same,Mean cumulative food intake 0-4 h,"[5]; single oral dose (DA 23.1 mg/kg, DB 26.8 mg/kg), 0-4 h, N = 15",7.3 gram
same,Mean cumulative food intake 0-6 h,"[5]; single oral dose (DA 23.1 mg/kg, DB 26.8 mg/kg), 0-6 h, N = 15",10.3 gram
same,Mean cumulative food intake 0-8 h,"[5]; single oral dose (DA 23.1 mg/kg, DB 26.8 mg/kg), 0-8 h, N = 15",12.5 gram
same,Mean cumulative food intake 0-24 h,"[5]; single oral dose (DA 23.1 mg/kg, DB 26.8 mg/kg), 0-24 h, N = 15",20.2 gram
same,cumulative food intake as compared with vehicle,"[5]; single oral dose, all indicated time intervals",reduced cumulative food intake during all the indicated time intervals as compared with vehicle
same,body weight gain as compared to vehicle treatment,"[6]; DIO mice on high-fat diet, 26.8 mg/kg DB or 23.1 mg/kg DA BID",less body weight gain as compared to vehicle treatment
same,"Mean food consumption per animal for 24-h interval, Day 0","[6]; DIO mice, BID oral (DA 23.1 mg/kg, DB 26.8 mg/kg), Day 0",2.2 gram
same,"Mean food consumption per animal for 24-h interval, Day 7","[6]; DIO mice, BID oral (DA 23.1 mg/kg, DB 26.8 mg/kg), Day 7",1.7 gram
same,"Mean food consumption per animal for 24-h interval, Day 14","[6]; DIO mice, BID oral (DA 23.1 mg/kg, DB 26.8 mg/kg), Day 14",1.9 gram
same,"Mean food consumption per animal for 24-h interval, Day 21","[6]; DIO mice, BID oral (DA 23.1 mg/kg, DB 26.8 mg/kg), Day 21",2.3 gram
same,"Mean food consumption per animal for 24-h interval, Day 28","[6]; DIO mice, BID oral (DA 23.1 mg/kg, DB 26.8 mg/kg), Day 28",2.0 gram
same,"Mean food consumption per animal for 24-h interval, Day 35","[6]; DIO mice, BID oral (DA 23.1 mg/kg, DB 26.8 mg/kg), Day 35",2.4 gram
same,"Mean food consumption per animal for 24-h interval, Day 42","[6]; DIO mice, BID oral (DA 23.1 mg/kg, DB 26.8 mg/kg), Day 42",2.0 gram
same,"Mean food consumption per animal for 24-h interval, Day 49","[6]; DIO mice, BID oral (DA 23.1 mg/kg, DB 26.8 mg/kg), Day 49",2.3 gram
same,"Mean food consumption per animal for 24-h interval, Day 56","[6]; DIO mice, BID oral (DA 23.1 mg/kg, DB 26.8 mg/kg), Day 56",1.7 gram
same,"Mean normalized body weight (% of baseline), study day 0","[6]; DIO mice, BID oral (DA 23.1 mg/kg, DB 26.8 mg/kg), day 0",100.0 % of baseline
same,"Mean normalized body weight (% of baseline), study day 4","[6]; DIO mice, BID oral (DA 23.1 mg/kg, DB 26.8 mg/kg), day 4",101.1 % of baseline
same,"Mean normalized body weight (% of baseline), study day 7","[6]; DIO mice, BID oral (DA 23.1 mg/kg, DB 26.8 mg/kg), day 7",100.6 % of baseline
same,"Mean normalized body weight (% of baseline), study day 9","[6]; DIO mice, BID oral (DA 23.1 mg/kg, DB 26.8 mg/kg), day 9",99.5 % of baseline
same,"Mean normalized body weight (% of baseline), study day 11","[6]; DIO mice, BID oral (DA 23.1 mg/kg, DB 26.8 mg/kg), day 11",98.8 % of baseline
same,"Mean normalized body weight (% of baseline), study day 14","[6]; DIO mice, BID oral (DA 23.1 mg/kg, DB 26.8 mg/kg), day 14",99.6 % of baseline
same,"Mean normalized body weight (% of baseline), study day 16","[6]; DIO mice, BID oral (DA 23.1 mg/kg, DB 26.8 mg/kg), day 16",98.5 % of baseline
same,"Mean normalized body weight (% of baseline), study day 18","[6]; DIO mice, BID oral (DA 23.1 mg/kg, DB 26.8 mg/kg), day 18",98.4 % of baseline
same,"Mean normalized body weight (% of baseline), study day 21","[6]; DIO mice, BID oral (DA 23.1 mg/kg, DB 26.8 mg/kg), day 21",99.9 % of baseline
same,"Mean normalized body weight (% of baseline), study day 23","[6]; DIO mice, BID oral (DA 23.1 mg/kg, DB 26.8 mg/kg), day 23",99.9 % of baseline
same,"Mean normalized body weight (% of baseline), study day 25","[6]; DIO mice, BID oral (DA 23.1 mg/kg, DB 26.8 mg/kg), day 25",100.0 % of baseline
same,"Mean normalized body weight (% of baseline), study day 28","[6]; DIO mice, BID oral (DA 23.1 mg/kg, DB 26.8 mg/kg), day 28",100.0 % of baseline
same,"Mean normalized body weight (% of baseline), study day 30","[6]; DIO mice, BID oral (DA 23.1 mg/kg, DB 26.8 mg/kg), day 30",100.0 % of baseline
same,"Mean normalized body weight (% of baseline), study day 32","[6]; DIO mice, BID oral (DA 23.1 mg/kg, DB 26.8 mg/kg), day 32",102.0 % of baseline
same,"Mean normalized body weight (% of baseline), study day 34","[6]; DIO mice, BID oral (DA 23.1 mg/kg, DB 26.8 mg/kg), day 34",101.9 % of baseline
same,"Mean normalized body weight (% of baseline), study day 36","[6]; DIO mice, BID oral (DA 23.1 mg/kg, DB 26.8 mg/kg), day 36",101.5 % of baseline
same,"Mean normalized body weight (% of baseline), study day 39","[6]; DIO mice, BID oral (DA 23.1 mg/kg, DB 26.8 mg/kg), day 39",102.6 % of baseline
same,"Mean normalized body weight (% of baseline), study day 41","[6]; DIO mice, BID oral (DA 23.1 mg/kg, DB 26.8 mg/kg), day 41",103.1 % of baseline
same,"Mean normalized body weight (% of baseline), study day 46","[6]; DIO mice, BID oral (DA 23.1 mg/kg, DB 26.8 mg/kg), day 46",103.9 % of baseline
same,"Mean normalized body weight (% of baseline), study day 49","[6]; DIO mice, BID oral (DA 23.1 mg/kg, DB 26.8 mg/kg), day 49",104.7 % of baseline
same,"Mean normalized body weight (% of baseline), study day 51","[6]; DIO mice, BID oral (DA 23.1 mg/kg, DB 26.8 mg/kg), day 51",104.9 % of baseline
same,"Mean normalized body weight (% of baseline), study day 53","[6]; DIO mice, BID oral (DA 23.1 mg/kg, DB 26.8 mg/kg), day 53",105.2 % of baseline
same,"Mean normalized body weight (% of baseline), study day 56","[6]; DIO mice, BID oral (DA 23.1 mg/kg, DB 26.8 mg/kg), day 56",106.7 % of baseline
same,food consumption compared to vehicle-dosed mice,"[6]; DIO mice, BID oral, 56-day treatment",nominally decreased food consumption compared to vehicle-dosed mice
same,"body weight gain, DA compared with DB","[6]; DIO mice, Day 34 to Day 56",body weight gain was less
same,"food consumption, DA compared with DB","[6]; DIO mice, all indicated measurement days except for Day 42",food consumption was less
